The NIST ThermoML archive (doi:10.1016/j.jct.2018.08.013)
Values joined by “and” are separate entries in the source; they are usually repeats but may differ in a detail not shown here. Identical values can stand only once. Numbers after ± are expanded uncertainties.

What was measured:
[1] = xn = mol fraction of the nth substance listed; details: 298 K; 100 kPa; Crystal of intercomponent compound 1; X-ray diffraction; x2 = 0.477
[2] = specific heat capacity at constant pressure; xn = mol fraction of the nth substance listed; details: 100 kPa, Crystal of intercomponent compound 1, relaxation calorimetry, x2 = 0.477

With `[Se]` [selenium] + [In] the mass density [1] was 5546 ± 59 kg/m3, the specific heat capacity ([2]; 10.11 K) was 10.21 ± 1.2 J/K/kg and 10.22 ± 1.2 J/K/kg and 10.23 ± 1.2 J/K/kg and the specific heat capacity ([2]; 12.12 K) was 16.85 ± 1.6 J/K/kg and 16.83 ± 1.6 J/K/kg. It also gave a specific heat capacity ([2]; 12.14 K) of 16.97 ± 1.6 J/K/kg, a specific heat capacity ([2]; 14.13 K) of 24.44 ± 1.8 J/K/kg and a specific heat capacity ([2]; 14.15 K) of 24.49 ± 1.8 J/K/kg. For the same molecule, the specific heat capacity ([2]; 16.15 K) was 32.56 ± 2.1 J/K/kg and 32.49 ± 2.1 J/K/kg, the specific heat capacity ([2]; 16.16 K) was 32.62 ± 2.1 J/K/kg and the specific heat capacity ([2]; 18.17 K) was 40.89 ± 2.3 J/K/kg and 40.88 ± 2.3 J/K/kg. The specific heat capacity ([2]; 18.18 K) was 40.87 ± 2.3 J/K/kg, the specific heat capacity ([2]; 20.18 K) was 49.24 ± 2.6 J/K/kg and the specific heat capacity ([2]; 20.19 K) was 49.1 ± 2.6 J/K/kg and 49.16 ± 2.6 J/K/kg. For the same molecule, the specific heat capacity ([2]; 22.2 K) was 57.18 ± 2.8 J/K/kg and 57.13 ± 2.8 J/K/kg, the specific heat capacity ([2]; 22.21 K) was 56.97 ± 2.8 J/K/kg and the specific heat capacity ([2]; 24.22 K) was 65.02 ± 3 J/K/kg and 64.97 ± 3 J/K/kg. For the same molecule, the specific heat capacity ([2]; 24.23 K) was 64.87 ± 3 J/K/kg, the specific heat capacity ([2]; 26.24 K) was 72.45 ± 3.3 J/K/kg and 72.56 ± 3.3 J/K/kg and the specific heat capacity ([2]; 28.25 K) was 79.57 ± 3.5 J/K/kg. For the same molecule, the specific heat capacity ([2]; 30.27 K) was 86.33 ± 3.8 J/K/kg and 86.39 ± 3.8 J/K/kg, the specific heat capacity ([2]; 32.78 K) was 94.54 ± 4.1 J/K/kg and the specific heat capacity ([2]; 32.79 K) was 94.59 ± 4.1 J/K/kg. The specific heat capacity ([2]; 35.31 K) was 102.49 ± 4.3 J/K/kg and 102.64 ± 4.3 J/K/kg, the specific heat capacity ([2]; 37.81 K) was 109.66 ± 4.6 J/K/kg and the specific heat capacity ([2]; 37.82 K) was 109.87 ± 4.6 J/K/kg. For the same molecule, the specific heat capacity ([2]; 40.34 K) was 117.25 ± 4.9 J/K/kg, the specific heat capacity ([2]; 40.35 K) was 116.73 ± 4.9 J/K/kg and 116.68 ± 4.9 J/K/kg and the specific heat capacity ([2]; 42.86 K) was 123.23 ± 5.1 J/K/kg. It also gave a specific heat capacity ([2]; 42.87 K) of 122.77 ± 5.1 J/K/kg, a specific heat capacity ([2]; 45.38 K) of 129.63 ± 5.4 J/K/kg and a specific heat capacity ([2]; 45.39 K) of 129.32 ± 5.4 J/K/kg. The specific heat capacity ([2]; 45.4 K) was 129.27 ± 5.4 J/K/kg, the specific heat capacity ([2]; 47.9 K) was 135.36 ± 5.6 J/K/kg and the specific heat capacity ([2]; 47.91 K) was 134.84 ± 5.6 J/K/kg. The specific heat capacity ([2]; 50.41 K) was 141.5 ± 5.8 J/K/kg, the specific heat capacity ([2]; 50.42 K) was 140.88 ± 5.8 J/K/kg and the specific heat capacity ([2]; 50.44 K) was 140.73 ± 5.8 J/K/kg. For the same molecule, the specific heat capacity ([2]; 52.93 K) was 146.09 ± 6 J/K/kg, the specific heat capacity ([2]; 52.95 K) was 145.42 ± 6 J/K/kg and the specific heat capacity ([2]; 55.43 K) was 151.41 ± 6.2 J/K/kg. The specific heat capacity ([2]; 55.46 K) was 150.74 ± 6.2 J/K/kg, the specific heat capacity ([2]; 55.48 K) was 150.63 ± 6.2 J/K/kg and the specific heat capacity ([2]; 57.97 K) was 155.28 ± 6.3 J/K/kg. For the same molecule, the specific heat capacity ([2]; 57.99 K) was 154.81 ± 6.3 J/K/kg, the specific heat capacity ([2]; 60.46 K) was 160.13 ± 6.6 J/K/kg and the specific heat capacity ([2]; 60.49 K) was 159.41 ± 6.5 J/K/kg. For the same molecule, the specific heat capacity ([2]; 60.52 K) was 159.25 ± 6.5 J/K/kg, the specific heat capacity ([2]; 63.01 K) was 163.79 ± 6.7 J/K/kg and the specific heat capacity ([2]; 63.04 K) was 162.97 ± 6.7 J/K/kg. For the same molecule, the specific heat capacity ([2]; 65.49 K) was 168.85 ± 6.9 J/K/kg, the specific heat capacity ([2]; 65.53 K) was 167.77 ± 6.9 J/K/kg and the specific heat capacity ([2]; 65.57 K) was 167.3 ± 6.8 J/K/kg. It also gave a specific heat capacity ([2]; 68.05 K) of 171.53 ± 7 J/K/kg, a specific heat capacity ([2]; 68.08 K) of 170.97 ± 7 J/K/kg and a specific heat capacity ([2]; 70.52 K) of 176.23 ± 7.2 J/K/kg. The specific heat capacity ([2]; 70.56 K) was 175.25 ± 7.1 J/K/kg, the specific heat capacity ([2]; 70.63 K) was 173.96 ± 7.1 J/K/kg and the specific heat capacity ([2]; 73.05 K) was 178.14 ± 7.3 J/K/kg. For the same molecule, the specific heat capacity ([2]; 73.09 K) was 177.31 ± 7.2 J/K/kg, the specific heat capacity ([2]; 75.56 K) was 182.68 ± 7.4 J/K/kg and the specific heat capacity ([2]; 75.6 K) was 181.49 ± 7.4 J/K/kg. The specific heat capacity ([2]; 75.67 K) was 180.82 ± 7.4 J/K/kg, the specific heat capacity ([2]; 78.13 K) was 184.75 ± 7.5 J/K/kg and the specific heat capacity ([2]; 78.16 K) was 183.82 ± 7.5 J/K/kg. The specific heat capacity ([2]; 80.57 K) was 189.39 ± 7.7 J/K/kg, the specific heat capacity ([2]; 80.65 K) was 187.95 ± 7.6 J/K/kg and the specific heat capacity ([2]; 80.71 K) was 187.02 ± 7.6 J/K/kg. For the same molecule, the specific heat capacity ([2]; 83.17 K) was 190.47 ± 7.7 J/K/kg, the specific heat capacity ([2]; 83.2 K) was 189.7 ± 7.7 J/K/kg and the specific heat capacity ([2]; 85.61 K) was 194.76 ± 7.9 J/K/kg. The specific heat capacity ([2]; 85.69 K) was 193.42 ± 7.9 J/K/kg, the specific heat capacity ([2]; 85.74 K) was 192.69 ± 7.8 J/K/kg and the specific heat capacity ([2]; 88.19 K) was 195.84 ± 8 J/K/kg. It also gave a specific heat capacity ([2]; 88.24 K) of 194.76 ± 7.9 J/K/kg, a specific heat capacity ([2]; 90.63 K) of 200.23 ± 8.2 J/K/kg and a specific heat capacity ([2]; 90.71 K) of 198.78 ± 8.1 J/K/kg. It also gave a specific heat capacity ([2]; 90.78 K) of 197.54 ± 8.1 J/K/kg, a specific heat capacity ([2]; 93.18 K) of 200.64 ± 8.2 J/K/kg and a specific heat capacity ([2]; 93.24 K) of 199.45 ± 8.1 J/K/kg. It also gave a specific heat capacity ([2]; 95.65 K) of 204.05 ± 8.3 J/K/kg, a specific heat capacity ([2]; 95.74 K) of 202.39 ± 8.2 J/K/kg and a specific heat capacity ([2]; 95.83 K) of 201.41 ± 8.2 J/K/kg. The specific heat capacity ([2]; 98.2 K) was 204.15 ± 8.3 J/K/kg, the specific heat capacity ([2]; 98.3 K) was 202.34 ± 8.2 J/K/kg and the specific heat capacity ([2]; 100.79 K) was 205.8 ± 8.4 J/K/kg. It also gave a specific heat capacity ([2]; 100.83 K) of 205.34 ± 8.4 J/K/kg, a specific heat capacity ([2]; 100.91 K) of 207.4 ± 8.4 J/K/kg and a specific heat capacity ([2]; 101.79 K) of 206.37 ± 8.4 J/K/kg. For the same molecule, the specific heat capacity ([2]; 101.88 K) was 205.18 ± 8.4 J/K/kg, the specific heat capacity ([2]; 105.84 K) was 208.74 ± 8.5 J/K/kg and the specific heat capacity ([2]; 105.86 K) was 208.07 ± 8.5 J/K/kg. It also gave a specific heat capacity ([2]; 109.83 K) of 211.27 ± 8.6 J/K/kg, a specific heat capacity ([2]; 109.93 K) of 209.1 ± 8.5 J/K/kg and a specific heat capacity ([2]; 113.88 K) of 213.59 ± 8.7 J/K/kg. For the same molecule, the specific heat capacity ([2]; 113.93 K) was 212.1 ± 8.6 J/K/kg.
